From the OligoGym collection come the findings set out here.

HELM strings list units from the 5' end as sugar, base in round brackets, then linkage (d deoxyribose, r ribose, m 2'-O-methyl, p phosphodiester). Strings are as the collection lists them, not checked against the first reports. ss, as = sense and antisense strand
Further: test system not given here.

For the series the following is noted: siRNA.
“RNA1{m(A)p.r(G)p.m(C)p.r(C)p.m(U)p.r(C)p.m(C)p.r(A)p.m(A)p.r(A)p.m(C)p.r(U)p.m(C)p.r(C)p.m(U)p.r(A)p.m(G)p.r(C)p.m(U)p.r(T)p.r(T)}|RNA2{r(A)p.r(G)p.m(C)p.r(U)p.r(A)p.r(G)p.r(G)p.r(A)p.r(G)p.r(U)p.r(U)p.r(U)p.r(G)p.r(G)p.r(A)p.r(G)p.r(G)p.m(C)p.r(U)p.r(T)p.r(T)}$$$RNA1{StrandType:ss}|RNA2{StrandType:as}$” showed a target mRNA knockdown of 47%.
Next, “RNA1{m(A)p.r(G)p.m(C)p.r(G)p.m(A)p.r(U)p.m(C)p.r(C)p.m(C)p.r(G)p.m(A)p.r(A)p.m(C)p.r(A)p.m(A)p.r(G)p.m(U)p.r(A)p.m(U)p.r(T)p.r(T)}|RNA2{r(A)p.r(U)p.r(A)p.m(C)p.r(U)p.r(U)p.r(G)p.r(U)p.r(U)p.m(C)p.r(G)p.r(G)p.r(G)p.r(A)p.r(U)p.m(C)p.r(G)p.m(C)p.r(U)p.r(T)p.r(T)}$$$RNA1{StrandType:ss}|RNA2{StrandType:as}$”: 34%; “RNA1{m(A)p.r(G)p.m(C)p.r(G)p.m(G)p.r(G)p.m(G)p.r(U)p.m(A)p.r(U)p.m(G)p.r(A)p.m(A)p.r(G)p.m(A)p.r(G)p.m(C)p.r(U)p.m(U)p.r(T)p.r(T)}|RNA2{r(A)p.r(A)p.r(G)p.r(C)p.r(U)p.r(C)p.r(U)p.r(U)p.r(C)p.r(A)p.r(U)p.r(A)p.r(C)p.r(C)p.r(C)p.r(C)p.r(G)p.r(C)p.r(U)p.r(T)p.r(T)}$$$RNA1{StrandType:ss}|RNA2{StrandType:as}$”: 75%; “RNA1{m(A)p.r(G)p.m(G)p.r(A)p.m(C)p.r(G)p.m(G)p.r(U)p.m(A)p.r(C)p.m(U)p.r(U)p.m(U)p.r(C)p.m(G)p.r(A)p.m(A)p.r(A)p.m(G)p.r(T)p.r(T)}|RNA2{r(C)p.m(U)p.m(U)p.m(U)p.r(C)p.r(G)p.r(A)p.r(A)p.r(A)p.r(G)p.m(U)p.r(A)p.r(C)p.r(C)p.r(G)p.m(U)p.r(C)p.r(C)p.m(U)p.r(T)p.r(T)}$$$RNA1{StrandType:ss}|RNA2{StrandType:as}$”: 17%.
Next, “RNA1{m(A)p.r(G)p.m(U)p.r(C)p.m(C)p.r(C)p.m(U)p.r(G)p.m(G)p.r(A)p.m(G)p.r(C)p.m(C)p.r(U)p.r(U)p.r(A)p.m(A)p.r(A)p.m(C)p.r(T)p.r(T)}|RNA2{r(G)p.r(U)p.r(U)p.r(U)p.r(A)p.r(A)p.r(G)p.r(G)p.r(C)p.r(U)p.r(C)p.r(C)p.r(A)p.r(G)p.r(G)p.r(G)p.r(A)p.r(C)p.r(U)p.r(T)p.r(T)}$$$RNA1{StrandType:ss}|RNA2{StrandType:as}$”: 68%; “RNA1{m(A)p.r(G)p.m(U)p.r(U)p.m(A)p.r(A)p.m(C)p.r(C)p.m(C)p.r(G)p.m(G)p.r(G)p.m(A)p.r(C)p.m(U)p.r(U)p.m(G)p.r(G)p.m(A)p.r(T)p.r(T)}|RNA2{r(U)p.r(C)p.r(C)p.r(A)p.r(A)p.m(G)p.r(U)p.r(C)p.r(C)p.r(C)p.m(G)p.m(G)p.m(G)p.r(U)p.r(U)p.r(A)p.r(A)p.r(C)p.r(U)p.r(T)p.r(T)}$$$RNA1{StrandType:ss}|RNA2{StrandType:as}$”: 45%; “RNA1{m(A)p.r(G)p.r(C)p.r(U)p.r(C)p.r(U)p.r(U)p.r(U)p.r(G)p.r(U)p.r(C)p.m(A)p.r(C)p.r(C)p.r(U)p.r(C)p.r(U)p.r(C)p.r(U)p.r(T)p.r(T)}|RNA2{m(A)p.r(G)p.m(A)p.r(G)p.m(A)p.r(G)p.m(G)p.r(U)p.m(G)p.r(A)p.m(C)p.r(A)p.m(A)p.r(A)p.m(G)p.r(A)p.m(G)p.r(C)p.m(U)p.r(T)p.r(T)}$$$RNA1{StrandType:ss}|RNA2{StrandType:as}$”: 19%.
To “RNA1{m(A)p.r(U)p.m(A)p.r(C)p.m(U)p.r(U)p.m(G)p.r(G)p.m(C)p.r(G)p.m(G)p.r(G)p.m(C)p.r(U)p.m(C)p.r(U)p.m(U)p.r(U)p.m(C)p.r(T)p.r(T)}|RNA2{m(G)p.r(A)p.r(A)p.r(A)p.m(G)p.r(A)p.m(G)p.r(C)p.r(C)p.r(C)p.m(G)p.r(C)p.r(C)p.r(A)p.r(A)p.m(G)p.r(U)p.r(A)p.r(U)p.r(T)p.r(T)}$$$RNA1{StrandType:ss}|RNA2{StrandType:as}$” belongs 25%; to “RNA1{m(A)p.r(U)p.m(A)p.r(C)p.m(U)p.r(U)p.m(G)p.r(G)p.m(C)p.r(G)p.m(G)p.r(G)p.m(C)p.r(U)p.m(C)p.r(U)p.m(U)p.r(U)p.m(C)p.r(T)p.r(T)}|RNA2{r(G)p.r(A)p.r(A)p.r(A)p.r(G)p.r(A)p.r(G)p.r(C)p.r(C)p.r(C)p.r(G)p.r(C)p.r(C)p.r(A)p.r(A)p.r(G)p.r(U)p.r(A)p.r(U)p.r(T)p.r(T)}$$$RNA1{StrandType:ss}|RNA2{StrandType:as}$”, 19%; to “RNA1{m(A)p.r(U)p.m(C)p.r(A)p.m(C)p.r(A)p.m(A)p.r(A)p.m(C)p.r(C)p.m(C)p.r(C)p.m(U)p.r(A)p.m(G)p.r(A)p.m(G)p.r(G)p.m(G)p.r(T)p.r(T)}|RNA2{r(C)p.r(C)p.r(C)p.r(U)p.r(C)p.r(U)p.m(A)p.r(G)p.r(G)p.r(G)p.r(G)p.r(U)p.r(U)p.r(U)p.r(G)p.r(U)p.r(G)p.m(A)p.r(U)p.r(T)p.r(T)}$$$RNA1{StrandType:ss}|RNA2{StrandType:as}$”, 35%.
“RNA1{m(A)p.r(U)p.m(C)p.r(A)p.m(C)p.r(A)p.m(A)p.r(A)p.m(C)p.r(C)p.m(C)p.r(C)p.m(U)p.r(A)p.m(G)p.r(A)p.m(G)p.r(G)p.m(G)p.r(T)p.r(T)}|RNA2{r(C)p.r(C)p.r(C)p.r(U)p.r(C)p.r(U)p.r(A)p.r(G)p.r(G)p.r(G)p.r(G)p.r(U)p.r(U)p.r(U)p.r(G)p.r(U)p.r(G)p.r(A)p.r(U)p.r(T)p.r(T)}$$$RNA1{StrandType:ss}|RNA2{StrandType:as}$” returned a target mRNA knockdown of 9%.
To “RNA1{m(A)p.r(U)p.m(C)p.r(A)p.m(G)p.r(A)p.m(G)p.r(G)p.m(G)p.r(A)p.m(G)p.r(G)p.m(U)p.r(C)p.m(U)p.r(U)p.m(A)p.r(G)p.m(A)p.r(T)p.r(T)}|RNA2{r(U)p.r(C)p.r(U)p.r(A)p.r(A)p.m(G)p.r(A)p.r(C)p.r(C)p.r(U)p.r(C)p.r(C)p.r(C)p.r(U)p.m(C)p.r(U)p.m(G)p.r(A)p.m(U)p.r(T)p.r(T)}$$$RNA1{StrandType:ss}|RNA2{StrandType:as}$” belongs 19%.
To “RNA1{m(A)p.r(U)p.m(C)p.r(C)p.m(U)p.r(G)p.m(C)p.r(A)p.m(G)p.r(A)p.m(A)p.r(G)p.m(A)p.r(A)p.m(G)p.r(C)p.m(C)p.r(U)p.m(C)p.r(T)p.r(T)}|RNA2{r(G)p.r(A)p.r(G)p.r(G)p.m(C)p.r(U)p.r(U)p.m(C)p.r(U)p.r(U)p.m(C)p.r(U)p.r(G)p.m(C)p.r(A)p.r(G)p.r(G)p.r(A)p.r(U)p.r(T)p.r(T)}$$$RNA1{StrandType:ss}|RNA2{StrandType:as}$” belongs 37%.
To “RNA1{m(A)p.r(U)p.m(C)p.r(G)p.m(U)p.r(C)p.m(G)p.r(U)p.m(C)p.r(A)p.m(G)p.r(G)p.m(G)p.m(U)p.r(A)p.m(A)p.r(G)p.m(G)p.r(U)p.r(T)p.r(T)}|RNA2{r(A)p.r(C)p.r(C)p.r(U)p.r(U)p.r(A)p.r(C)p.r(C)p.r(C)p.r(U)p.r(G)p.r(A)p.r(C)p.r(G)p.m(A)p.r(C)p.m(G)p.r(A)p.m(U)p.r(T)p.r(T)}$$$RNA1{StrandType:ss}|RNA2{StrandType:as}$” belongs 34%; to “RNA1{m(A)p.r(U)p.m(C)p.r(U)p.m(A)p.r(C)p.m(C)p.r(C)p.m(A)p.r(G)p.m(C)p.r(U)p.m(C)p.r(U)p.m(C)p.r(C)p.m(C)p.r(U)p.m(U)p.r(T)p.r(T)}|RNA2{r(A)p.r(A)p.r(G)p.r(G)p.r(G)p.r(A)p.r(G)p.r(A)p.r(G)p.r(C)p.m(U)p.r(G)p.r(G)p.r(G)p.m(U)p.r(A)p.r(G)p.r(A)p.m(U)p.r(T)p.r(T)}$$$RNA1{StrandType:ss}|RNA2{StrandType:as}$”, 43%; to “RNA1{m(A)p.r(U)p.m(G)p.r(G)p.m(G)p.r(A)p.m(G)p.r(A)p.m(A)p.r(G)p.m(U)p.r(A)p.m(G)p.r(U)p.m(C)p.r(C)p.m(C)p.r(C)p.r(C)p.r(T)p.r(T)}|RNA2{r(G)p.r(G)p.r(G)p.r(G)p.r(G)p.r(A)p.r(C)p.r(U)p.r(A)p.r(C)p.r(U)p.r(U)p.r(C)p.r(U)p.r(C)p.r(C)p.r(C)p.r(A)p.r(U)p.r(T)p.r(T)}$$$RNA1{StrandType:ss}|RNA2{StrandType:as}$”, 71%.
“RNA1{m(C)p.m(G)p.m(U)p.m(A)p.m(C)p.m(G)p.r(C)p.r(G)p.r(G)p.r(A)p.r(A)p.r(U)p.r(A)p.r(C)p.r(U)p.r(U)p.r(C)p.r(G)p.r(A)p.r(T)p.r(T)}|RNA2{r(U)p.r(C)p.r(G)p.r(A)p.r(A)p.r(G)p.r(U)p.r(A)p.r(U)p.r(U)p.r(C)p.r(C)p.r(G)p.r(C)p.r(G)p.r(U)p.r(A)p.r(C)p.r(G)p.r(T)p.r(T)}$$$RNA1{StrandType:ss}|RNA2{StrandType:as}$” gave a target mRNA knockdown of 94.8%.
To “RNA1{m(C)p.r(A)p.r(G)p.m(C)p.r(A)p.r(A)p.r(A)p.m(C)p.m(C)p.r(A)p.m(C)p.r(G)p.r(A)p.m(U)p.m(C)p.r(A)p.r(A)p.m(U)p.r(A)p.r(T)p.r(T)}|RNA2{m(U)p.r(A)p.m(U)p.m(U)p.r(G)p.r(A)p.m(U)p.m(C)p.r(G)p.m(U)p.r(G)p.r(G)p.m(U)p.m(U)p.m(U)p.r(G)p.m(C)p.m(U)p.r(G)p.r(T)p.r(T)}$$$RNA1{StrandType:ss}|RNA2{StrandType:as}$” belongs 5%.
Next, “RNA1{m(C)p.r(A)p.r(G)p.r(A)p.r(G)p.m(C)p.r(A)p.r(A)p.m(U)p.m(U)p.r(G)p.m(U)p.m(U)p.m(U)p.r(A)p.m(C)p.m(C)p.m(U)p.r(A)p.r(T)p.r(T)}|RNA2{m(U)p.r(A)p.r(G)p.r(G)p.m(U)p.r(A)p.r(A)p.r(A)p.m(C)p.r(A)p.r(A)p.m(U)p.m(U)p.r(G)p.m(C)p.m(U)p.m(C)p.r(U)p.r(G)p.r(T)p.r(T)}$$$RNA1{StrandType:ss}|RNA2{StrandType:as}$”: 75%; “RNA1{m(C)p.r(C)p.m(G)p.r(A)p.m(A)p.r(G)p.m(A)p.r(C)p.m(G)p.r(A)p.m(A)p.r(G)p.m(C)p.r(U)p.m(A)p.r(U)p.m(G)p.r(A)p.m(A)p.r(T)p.r(T)}|RNA2{r(U)p.r(U)p.r(C)p.r(A)p.r(U)p.r(A)p.m(G)p.r(C)p.r(U)p.r(U)p.r(C)p.m(G)p.r(U)p.r(C)p.r(U)p.r(U)p.r(C)p.m(G)p.m(G)p.r(T)p.r(T)}$$$RNA1{StrandType:ss}|RNA2{StrandType:as}$”: 51%.
